Data from ChEMBL document CHEMBL1201862, “PubChem BioAssay data set” (2004).
Activity calls are given as the source filed them.

Experiments:
[1] = molecular target: T1, Polyadenylate-binding protein 1 (Homo sapiens, UniProt P11940); experiment: PABP1 MLLE–PAM2 interaction inhibitors, dose response, miRNA deadenylation inhibitor project, biochemical, fluorescence polarization, Cy5-PAM2 peptide, secondary (AID 602260); format: functional; details: read-out: IC50_Mean
[2] = molecular target: Major prion protein (Homo sapiens, UniProt P04156); format: functional, cell-based
[3] = molecular target: T1, Polyadenylate-binding protein 1; experiment: PABP1 MLLE–PAM2 binding inhibitor potency, dose response, biochemical, fluorescence polarization, FITC-PAM2 peptide (AID 602259); format: functional; details: read-out: IC50_Mean
[4] = molecular target: Protein-tyrosine kinase 2-beta (Homo sapiens, UniProt Q14289);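 also: potency of inhibitors of PYK2 kinase phosphorylation of poly-GT substrate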
[5] = cells
[6] = molecular target: T2, Histone-lysine N-methyltransferase NSD2 (Homo sapiens, UniProt O96028); format: biochemical
T2 sequence (O96028 whole entry): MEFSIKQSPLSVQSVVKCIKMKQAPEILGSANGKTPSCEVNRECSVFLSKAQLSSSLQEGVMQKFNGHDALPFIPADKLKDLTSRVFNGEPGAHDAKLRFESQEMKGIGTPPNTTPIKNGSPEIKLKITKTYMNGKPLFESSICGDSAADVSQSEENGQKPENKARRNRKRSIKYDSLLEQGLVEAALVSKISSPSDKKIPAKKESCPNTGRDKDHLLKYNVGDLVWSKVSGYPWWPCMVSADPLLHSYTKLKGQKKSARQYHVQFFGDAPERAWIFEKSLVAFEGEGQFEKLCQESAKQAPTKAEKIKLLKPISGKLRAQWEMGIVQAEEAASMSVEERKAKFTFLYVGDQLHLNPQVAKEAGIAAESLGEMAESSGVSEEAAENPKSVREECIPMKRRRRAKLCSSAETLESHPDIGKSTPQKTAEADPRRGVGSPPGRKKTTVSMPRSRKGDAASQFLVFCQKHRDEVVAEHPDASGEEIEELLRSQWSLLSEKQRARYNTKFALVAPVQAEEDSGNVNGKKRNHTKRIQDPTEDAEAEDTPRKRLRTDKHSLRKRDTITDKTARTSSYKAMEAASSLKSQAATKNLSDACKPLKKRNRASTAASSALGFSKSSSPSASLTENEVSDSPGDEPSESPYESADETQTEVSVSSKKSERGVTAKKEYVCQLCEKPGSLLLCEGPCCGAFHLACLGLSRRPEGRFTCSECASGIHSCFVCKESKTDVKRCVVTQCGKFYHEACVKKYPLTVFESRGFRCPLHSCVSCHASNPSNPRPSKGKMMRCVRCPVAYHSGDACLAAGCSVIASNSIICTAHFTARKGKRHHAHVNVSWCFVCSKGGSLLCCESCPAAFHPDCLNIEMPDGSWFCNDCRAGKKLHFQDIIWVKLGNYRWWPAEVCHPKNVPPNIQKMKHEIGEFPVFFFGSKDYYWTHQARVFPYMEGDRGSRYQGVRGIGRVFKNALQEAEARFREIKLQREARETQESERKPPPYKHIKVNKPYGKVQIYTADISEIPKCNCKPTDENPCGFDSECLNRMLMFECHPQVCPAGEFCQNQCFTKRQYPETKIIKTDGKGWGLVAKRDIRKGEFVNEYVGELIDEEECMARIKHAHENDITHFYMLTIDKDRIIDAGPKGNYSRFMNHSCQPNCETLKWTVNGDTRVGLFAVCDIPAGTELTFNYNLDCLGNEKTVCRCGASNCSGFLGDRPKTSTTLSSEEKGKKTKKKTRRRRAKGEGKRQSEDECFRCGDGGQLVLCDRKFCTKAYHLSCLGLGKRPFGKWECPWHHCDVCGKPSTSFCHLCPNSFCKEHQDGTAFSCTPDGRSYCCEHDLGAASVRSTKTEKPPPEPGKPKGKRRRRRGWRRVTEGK

[7] = NIH-3T3 fibroblast cytotoxicity, dose response, cytotoxicity control, cell-based, fluorescence, Alamar Blue, secondary assay (AID 2327); format: functional;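 also: NIH-3T3 mouse fibroblasts cultured with fluconazole at 8 µg/mL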
[8] = molecular target: T3, Zinc finger protein mex-5 (Caenorhabditis elegans, UniProt Q9XUB2); experiment: MEX-5/TCR-2 RNA interaction inhibitors, dose response, biochemical, C. elegans, fluorescence polarization (AID 1960)
T3 sequence (Q9XUB2 whole entry): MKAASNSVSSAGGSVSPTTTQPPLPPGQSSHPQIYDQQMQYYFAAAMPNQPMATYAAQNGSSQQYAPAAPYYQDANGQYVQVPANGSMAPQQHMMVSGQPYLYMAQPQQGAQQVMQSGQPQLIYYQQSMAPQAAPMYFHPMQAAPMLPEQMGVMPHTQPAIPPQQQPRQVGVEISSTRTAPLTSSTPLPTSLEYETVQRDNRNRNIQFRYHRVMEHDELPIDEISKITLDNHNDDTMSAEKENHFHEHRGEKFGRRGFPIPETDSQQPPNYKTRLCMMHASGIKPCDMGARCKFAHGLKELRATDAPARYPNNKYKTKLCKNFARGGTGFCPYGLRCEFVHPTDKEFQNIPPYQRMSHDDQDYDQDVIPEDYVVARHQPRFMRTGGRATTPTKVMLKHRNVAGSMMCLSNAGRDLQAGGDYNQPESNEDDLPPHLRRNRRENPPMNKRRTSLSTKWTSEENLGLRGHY

[9] = molecular target: T4, RNA-binding protein pos-1 (Caenorhabditis elegans, UniProt G5EF15); experiment: inhibitors of POS-1/mex-3 RNA binding, dose response, biochemical, fluorescence polarization (AID 1964);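 also: purified POS-1 fused to maltose binding protein made in E. coli; potency of compounds blocking POS-1 binding to fluorescent RNA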
T4 sequence (G5EF15 whole entry): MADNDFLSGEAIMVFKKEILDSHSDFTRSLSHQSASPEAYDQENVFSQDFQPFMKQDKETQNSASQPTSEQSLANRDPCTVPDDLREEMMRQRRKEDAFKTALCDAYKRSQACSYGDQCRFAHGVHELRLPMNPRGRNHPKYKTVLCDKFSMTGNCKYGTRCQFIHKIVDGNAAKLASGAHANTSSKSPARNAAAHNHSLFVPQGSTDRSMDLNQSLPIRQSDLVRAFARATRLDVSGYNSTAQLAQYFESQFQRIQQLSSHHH

[10] = C. albicans growth with fluconazole, confirmation, fluorescence, retest (AID 2467); format: functional, cell-based
[11] = molecular target: T5, Caspase-6 (Homo sapiens, UniProt P55212); experiment: human caspase-6 inhibitors, dose response, biochemical, VEID-R110 fluorescence, cherry-pick (AID 720632)
T5 sequence (P55212 whole entry): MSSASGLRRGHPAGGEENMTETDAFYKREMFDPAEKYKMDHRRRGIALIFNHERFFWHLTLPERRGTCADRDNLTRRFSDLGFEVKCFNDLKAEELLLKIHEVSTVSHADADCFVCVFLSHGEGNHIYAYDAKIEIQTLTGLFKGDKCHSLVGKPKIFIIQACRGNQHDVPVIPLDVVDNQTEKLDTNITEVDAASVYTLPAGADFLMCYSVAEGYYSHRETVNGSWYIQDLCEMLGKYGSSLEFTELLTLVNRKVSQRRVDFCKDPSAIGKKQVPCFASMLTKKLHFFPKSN

[12] = molecular target: Large T antigen (Simian virus 40, UniProt P03070); format: functional, Betapolyomavirus macacae;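 also: Confirmatory-stage PubChem screen for compounds that inhibit SV40 T antigen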
[13] = cytotoxicity in HEK-293T cells, dose response, cytotoxicity control for BCR NF-kB inhibitor project, luminescence, B-cell screen hits (AID 489021); format: functional, cell-based;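 also: HEK-293T cells carrying an NF-kB luciferase reporter; cells exposed to compound for about 14 hours before viability readout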
[14] = inhibitors of PGC1a acetylation in cells, dose response, cell-based, cherry-picked samples (AID 720514); format: functional;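 also: potency may reflect raised or lowered acetylation signal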
[15] = tested on: H9c2; experiment: cells; format: functional, cell-based; details: Rattus norvegicus, H9c2, Myocardium;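 also: confirmatory concentration-response retest of ultra-high-throughput screening hits for modulation of myocardial damage; cell death induced by hydrogen peroxide oxidative stress; compound pretreatment for 60 min then peroxide exposure for 2 h; potency is for protecting the cells against peroxide damage rather than for killing them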
[16] = molecular target: T6, Tyrosyl-DNA phosphodiesterase 2 (Homo sapiens, UniProt O95551); experiment: human TDP2 enzyme inhibitors, dose response, biochemical, epi absorbance, IC50 (AID 743297)
T6 sequence (O95551 whole entry): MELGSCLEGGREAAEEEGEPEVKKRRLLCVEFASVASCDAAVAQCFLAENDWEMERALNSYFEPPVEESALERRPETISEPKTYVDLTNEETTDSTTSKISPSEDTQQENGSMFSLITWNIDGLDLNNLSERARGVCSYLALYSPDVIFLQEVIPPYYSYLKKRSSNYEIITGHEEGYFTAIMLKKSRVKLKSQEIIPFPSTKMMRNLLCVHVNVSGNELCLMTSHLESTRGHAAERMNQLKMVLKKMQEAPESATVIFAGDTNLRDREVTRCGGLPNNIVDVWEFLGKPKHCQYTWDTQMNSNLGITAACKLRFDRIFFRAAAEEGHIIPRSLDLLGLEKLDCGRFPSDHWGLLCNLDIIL

[17] = IGROV1 ovarian cancer cell cytotoxicity, dose response, PAX8 inhibitor project, plate reader, dry powder samples (AID 743043); format: functional, cell-based; details: IGROV-1
[18] = NIH:OVCAR-3 ovarian cancer cell cytotoxicity, dose response, PAX8 inhibitor project, plate reader, dry powder samples (AID 743044); format: functional, cell-based
[19] = molecular target: Paired box protein Pax-8 (Homo sapiens, UniProt Q06710); experiment: inhibitors of PAX8-driven TPO luciferase reporter, dose response, RMG-I cells, cherry-pick (AID 687027); format: functional, cell-based;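 also: luciferase reporter driven by Pax8 target thyroperoxidase promoter measured by SteadyGlo luminescence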
[20] = cytotoxicity in OVCAR8 ovarian cancer cells, dose response, PAX8 project, cell-based, plate reader, dry powder samples (AID 743197); format: functional; details: OVCAR-8
[21] = P. falciparum Dd2 growth inhibitors, dose response, SYBR Green, dry powder samples, set 9 (AID 1159568); format: functional, cell-based
[22] = MC4R antagonists, dose response, counter-screen for LGR2 antagonist project, cell-based, plate reader, cherry pick (AID 743444); format: functional;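 also: transfected HEK 293 cells stimulated with alpha-MSH peptide; potency of inhibitors of the alpha-MSH evoked signal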
[23] = LGR2 antagonists, dose response, cell-based, HEK293, CRE-luciferase reporter, cherry pick, set 2 (AID 743343); format: functional;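 also: transfected cells were stimulated with diluted bursicon conditioned medium after compound addition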
[24] = molecular target: Cytochrome P450 3A4 (Homo sapiens, UniProt P08684); details: Potency;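 also: confirmatory qHTS run detecting inhibitors and substrates of CYP3A4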

Q: With Cc1nnc(NC(=O)CSc2nc(C(C)C)nc3ccccc23)s1 as the molecule, how does the IC50 [1] read?
A: > 66 µM (inactive)

Q: What about the IC50 [2] of the same molecule?
A: 1.83 µM (active)

Q: And the IC50 [3]?
A: > 66 µM (inactive)

Q: What about the IC50 [4] of the same molecule?
A: > 69.5 µM (not active)

Q: What about the IC50 [5] of the same molecule?
A: > 138 µM (inactive)

Q: For O=C1NC(=S)NC(=O)C1=NNc1cc(S(=O)(=O)Nc2ccc(Cl)cc2)ccc1Cl, which AC50 [6] is on record?
A: > 20 µM (inactive)

Q: Which IC50 [2] does the source give for Cc1cc(SC(C)C(=O)O)nc2ccccc12 (stereo not given) here?
A: 8.85 µM (active)

Q: What about the IC50 [5] of the same molecule?
A: > 138 µM (inactive)

Q: For CCOc1cc(/C=C2\C(=O)NN(c3ccccc3)C2=O)cc([N+](=O)[O-])c1O, which EC50 [7] is on record?
A: > 160 µM (inactive)

Q: What about the EC50 [8] of the same molecule?
A: 36.2 µM (active)

Q: And the EC50 [9]?
A: 129 µM (active)

Q: What about the EC50 [10] of the same molecule?
A: > 38 µM (not active)

Q: What about the AC50 [11] of the same molecule?
A: 36.8 µM (active)

Q: What about the IC50 [12] of the same molecule?
A: > 100 µM (active)

Q: And the AC50 [6]?
A: > 20 µM (inactive)

Q: With COc1ccc(C(=O)Nc2cccc(NC(=O)c3ccc(OC)c(OC)c3)n2)cc1OC as the molecule, how does the IC50 [13] read?
A: > 80 µM (inactive)

Q: What about the AC50 [14] of the same molecule?
A: 7.99 µM (active)

Q: What about the IC50 [15] of the same molecule?
A: > 79 µM (inactive)

Q: For CCOc1ccc2nc(NCCNC(=O)Nc3ccccc3)c(C#N)cc2c1, which AC50 [14] is on record?
A: 19.5 µM (active)

Q: For O=C(Nc1c(-c2ccc3c(c2)OCO3)[nH][nH]c1=O)c1ccccc1, which AC50 [11] is on record?
A: 47.5 µM (active)

Q: And the IC50 [16]?
A: 9.43 µM (active)

Q: With COc1ccccc1NC(=O)N1CCCCN2[C@@H](CO)[C@@H](c3ccc(C#Cc4ccccc4)cc3)[C@@H]2C1 as the molecule, how does the AC50 [17] read?
A: 39 µM (active)

Q: What about the AC50 [18] of the same molecule?
A: 19.3 µM (active)

Q: What about the AC50 [19] of the same molecule?
A: 4.9 µM (active)

Q: What about the AC50 [20] of the same molecule?
A: 35 µM (active)

Q: For C[C@H]1CCCCO[C@@H](CN(C)Cc2ccc(C(F)(F)F)cc2)[C@@H](C)CN([C@@H](C)CO)C(=O)c2cc(NS(=O)(=O)c3ccc(F)cc3)ccc2O1, which AC50 [17] is on record?
A: 39.4 µM (active)

Q: And the AC50 [18]?
A: 34.2 µM (active)

Q: What about the AC50 [19] of the same molecule?
A: 6.82 µM (active)

Q: And the AC50 [20]?
A: 51.3 µM (active)

Q: Which AC50 [21] does the source give for N#C[C@@H]1[C@H](c2ccccc2C2=CCCC2)[C@H](CO)N1C(=O)C1CCOCC1 here?
A: > 39 µM (inactive)

Q: Which AC50 [21] does the source give for C[C@@H]1CCCCO[C@@H](CN(C)C(=O)Nc2cccc3ccccc23)[C@H](C)CN([C@@H](C)CO)C(=O)c2cc(NC(=O)CCC(F)(F)F)ccc2O1 here?
A: 6.54 µM (active)

Q: With C[C@@H]1CCCCO[C@H](CN(C)S(=O)(=O)c2ccc(F)cc2)[C@@H](C)CN([C@@H](C)CO)C(=O)c2cc(N(C)C)ccc2O1 as the molecule, how does the AC50 [21] read?
A: 2.17 µM (active)

Q: With COc1ccc(/C=C/C(=O)Nc2ccccc2C(=O)O)cc1OC as the molecule, how does the AC50 [22] read?
A: 0.594 µM (active)

Q: What about the AC50 [23] of the same molecule?
A: 0.587 µM (active)

Q: And the AC50 [24]?
A: 10 µM (inconclusive)
